Laboratory results as given in US10829520B2, “Beta-hairpin peptidomimetics” (POLYPHOR AG, priority 2015, dated 2020).
*1 amine or outer side, *2 acyl side, *3 side chain or, on linkers, in order; H or OH if unused. Where a SMILES comes first, the peptide text is derived from it. Bridges are numbered along the chain shown (N, C = ends). [ ]: non-standard residue; d: D form. NMeW = CN[C@@H](Cc1c[nH]c2ccccc12)C(=O)O; X1 = CC(C)NC[C@H](N[*:1])C(=O)[*:2]; Cha = N[C@@H](CC1CCCCC1)C(=O)O; Tle = CC(C)(C)[C@H](N)C(=O)O; Nle = CCCC[C@H](N)C(=O)O; Orn = NCCC[C@H](N)C(=O)O; Dab = NCC[C@H](N)C(=O)O; Dap = NC[C@H](N)C(=O)O; Sar = CNCC(=O)O

Legend:
Type in all cases: cell-based
[1] = tested on: Escherichia coli ATCC 25922; conditions: ATCC 25922
Summary of the method: (§1)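 Peptide MICs were determined by CLSI broth microdilution in cation-adjusted Mueller-Hinton II broth with 0.002% polysorbate 80, inoculum approx. 10^6 CFU/mL. Two-fold serial dilutions of peptide were tested. MIC was the lowest concentration (μg/mL) with no visible growth after 18-20 hours at 35° C.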

Escherichia coli 926415 = conditions: 926415
[2] = tested on: Pseudomonas aeruginosa ATCC 27853; conditions: ATCC 27853
Summary of the method: as §1

[3] = tested on: Acinetobacter baumannii DSM 30008; conditions: DSM 30008
Summary of the method: as §1

[4] = tested on: Klebsiella pneumoniae 968733; conditions: 968733
[5] = tested on: Klebsiella pneumoniae SSI #3010; conditions: SSI #3010
Summary of the method: as §1

[6] = tested on: Acinetobacter baumannii 872842; conditions: 872842
[7] = tested on: human red blood cells (hRBC); assay: Hemolysis of human red blood cells; conditions: red cells of human, 1 h, 100 μg/mL
Summary of the method: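 Percent lysis of washed human erythrocytes after 1 h at 37° C. with 100 μg/mL peptide, calculated from OD540 of 8-fold diluted supernatant as a fraction of the 2.5% Triton X-100 value.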

SMILES | Escherichia coli ATCC 25922 MIC [1] | Escherichia coli 926415 MIC (Escherichia coli 926415) | Pseudomonas aeruginosa ATCC 27853 MIC [2] | Acinetobacter baumannii DSM 30008 MIC [3] | Klebsiella pneumoniae 968733 MIC [4] | Klebsiella pneumoniae SSI #3010 MIC [5] | Acinetobacter baumannii 872842 MIC [6] | Hemolysis at 100 μg/mL [7]
CC(=O)N[C@@H](Cc1c[nH]c2ccccc12)C(=O)N[C@H]1CSSC[C@@H](C(=O)N[C@@H](CCCN)C(=O)N[C@H](C(=O)N[C@@H](CCN)C(=O)N[C@@H](CCN)C(=O)N[C@H]2CCNC(=O)[C@H]([C@@H](C)O)NC(=O)[C@H](CCN)NC(=O)[C@H](CCN)NC(=O)[C@H](CC(C)C)NC(=O)[C@@H](Cc3ccccc3)NC(=O)[C@H](CCN)NC2=O)[C@@H](C)O)NC(=O)[C@H](CC2CCCCC2)NC(=O)[C@H](CNC(C)C)NC(=O)[C@H](Cc2c[nH]c3ccccc23)NC(=O)[C@@H]2CCCN2C(=O)[C@H]2CCCN2C(=O)[C@H](CO)NC(=O)[C@H](C)NC(=O)[C@H](C(C)(C)C)NC1=O [Ex. 139] (Ac-WC[Tle]AS[dP]PW[X1][Cha]C[Orn]T[Dab][Dab][Dab][Dab][dF]L[Dab][Dab]T; disulfide 2-11; lactam 16-C) | 2 µg/mL | 1 µg/mL | 2 µg/mL | 1 µg/mL | 4 µg/mL | 2 µg/mL | 2 µg/mL | 4%
CC(C)C[C@@H]1NC(=O)[C@@H](CC(C)C)NC(=O)[C@H](CCN)NC(=O)[C@@H](NC(=O)[C@H](CCN)NC(=O)[C@@H](NC(=O)[C@H](CCN)NC(=O)CN(C)C(=O)[C@@H]2CSSC[C@H](NC(=O)[C@@H](N)Cc3c[nH]c4ccccc34)C(=O)N[C@@H](C(C)(C)C)C(=O)N[C@@H](Cc3ccc(O)cc3)C(=O)N[C@@H](CO)C(=O)N3CCC[C@@H]3C(=O)N3CCC[C@H]3C(=O)N[C@@H](CC(C)C)C(=O)N[C@@H](CN)C(=O)N[C@@H](Cc3ccc(O)cc3)C(=O)N2)[C@@H](C)O)CCNC(=O)[C@H]([C@@H](C)O)NC(=O)[C@H](CCN)NC(=O)[C@H](CCN)NC1=O [Ex. 140] (H-WC[Tle]YS[dP]PL[Dap]YC[Sar][Dab]T[Dab][Dab][Dab][dL]L[Dab][Dab]T; disulfide 2-11; lactam 16-C) | 0.0625 µg/mL | 0.125 µg/mL | 0.5 µg/mL | 0.125 µg/mL | 1 µg/mL | 0.0625 µg/mL | 0.125 µg/mL | <1%
CCCC[C@@H]1NC(=O)[C@@H]2CCCN2C(=O)[C@H]2CCCN2C(=O)[C@H](C)NC(=O)[C@H](CO)NC(=O)[C@H](C(C)C)NC(=O)[C@@H](NC(=O)[C@@H](N)Cc2c[nH]c3ccccc23)CSSC[C@@H](C(=O)N(C)CC(=O)N[C@@H](CCN)C(=O)N[C@H](C(=O)N[C@@H](CCN)C(=O)N[C@H]2CCNC(=O)[C@H]([C@@H](C)O)NC(=O)[C@H](CCN)NC(=O)[C@H](CCN)NC(=O)[C@H](CC(C)C)NC(=O)[C@@H](CC(C)C)NC(=O)[C@H](CCN)NC2=O)[C@@H](C)O)NC(=O)[C@H](Cc2ccc(O)cc2)NC(=O)[C@H](CN)NC1=O [Ex. 141] (H-WCVSA[dP]P[Nle][Dap]YC[Sar][Dab]T[Dab][Dab][Dab][dL]L[Dab][Dab]T; disulfide 2-11; lactam 16-C) | 0.0625 µg/mL | 0.125 µg/mL | 2 µg/mL | 0.125 µg/mL | 2 µg/mL | 0.125 µg/mL | 0.125 µg/mL | <1%
CC(=O)N[C@@H](Cc1c[nH]c2ccccc12)C(=O)N[C@H]1CSSC[C@@H](C(=O)N[C@@H](CCCN)C(=O)N[C@H](C(=O)N[C@@H](CCN)C(=O)N[C@@H](CCN)C(=O)N[C@H]2CCNC(=O)[C@H]([C@@H](C)O)NC(=O)[C@H](CCN)NC(=O)[C@H](CCN)NC(=O)[C@H](CC(C)C)NC(=O)[C@@H](Cc3ccccc3)NC(=O)[C@H](CCN)NC2=O)[C@@H](C)O)NC(=O)[C@H](Cc2ccc(O)cc2)NC(=O)[C@H](CO)NC(=O)[C@H](CC(C)C)NC(=O)[C@@H]2CCCN2C(=O)[C@H]2CCCN2C(=O)[C@H](CN)NC(=O)[C@H](C)NC(=O)[C@H](C(C)(C)C)NC1=O [Ex. 142] (Ac-WC[Tle]A[Dap][dP]PLSYC[Orn]T[Dab][Dab][Dab][Dab][dF]L[Dab][Dab]T; disulfide 2-11; lactam 16-C) | 0.5 µg/mL | 0.25 µg/mL | 0.25 µg/mL | 0.25 µg/mL | 1 µg/mL | 0.5 µg/mL | 0.125 µg/mL | <1%
CN[C@@H](Cc1c[nH]c2ccccc12)C(=O)N[C@H]1CSSC[C@@H](C(=O)N(C)CC(=O)N[C@@H](CCN)C(=O)N[C@H](C(=O)N[C@@H](CCN)C(=O)N[C@H]2CCNC(=O)[C@H]([C@@H](C)O)NC(=O)[C@H](CCN)NC(=O)[C@H](CCN)NC(=O)[C@H](CC(C)C)NC(=O)[C@@H](CC(C)C)NC(=O)[C@H](CCN)NC2=O)[C@@H](C)O)NC(=O)[C@H](Cc2ccc(O)cc2)NC(=O)[C@H](CN)NC(=O)[C@H](CC(C)C)NC(=O)[C@@H]2CCCN2C(=O)[C@H]2CCCN2C(=O)[C@H](Cc2ccc(O)cc2)NC(=O)[C@H](C)NC(=O)[C@H](C(C)C)NC1=O [Ex. 143] (H-[NMeW]CVAY[dP]PL[Dap]YC[Sar][Dab]T[Dab][Dab][Dab][dL]L[Dab][Dab]T; disulfide 2-11; lactam 16-C) | 0.03125 µg/mL | 0.0625 µg/mL | 0.25 µg/mL | 0.0625 µg/mL | 0.125 µg/mL | 0.125 µg/mL | 0.0625 µg/mL | <1%
CC(=O)N[C@@H](Cc1c[nH]c2ccccc12)C(=O)N[C@H]1CSSC[C@@H](C(=O)N[C@@H](CCCN)C(=O)N[C@H](C(=O)N[C@@H](CCN)C(=O)N[C@@H](CCN)C(=O)N[C@H]2CCNC(=O)[C@H]([C@@H](C)O)NC(=O)[C@H](CCN)NC(=O)[C@H](CCN)NC(=O)[C@H](CC(C)C)NC(=O)[C@@H](Cc3ccccc3)NC(=O)[C@H](CCN)NC2=O)[C@@H](C)O)NC(=O)[C@H](Cc2ccc(O)cc2)NC(=O)[C@H](CO)NC(=O)[C@H]([C@@H](C)O)NC(=O)[C@@H]2CCCN2C(=O)[C@H]2CCCN2C(=O)[C@H](Cc2ccc(O)cc2)NC(=O)[C@H](C)NC(=O)[C@H](C(C)(C)C)NC1=O [Ex. 144] (Ac-WC[Tle]AY[dP]PTSYC[Orn]T[Dab][Dab][Dab][Dab][dF]L[Dab][Dab]T; disulfide 2-11; lactam 16-C) | 0.25 µg/mL | 0.5 µg/mL | 0.25 µg/mL | 0.125 µg/mL | 1 µg/mL | 0.25 µg/mL | 0.25 µg/mL | 4%
CC(C)C[C@@H]1NC(=O)[C@@H](NC(=O)[C@@H](N)Cc2c[nH]c3ccccc23)CSSC[C@@H](C(=O)NCC(=O)N[C@@H](CCN)C(=O)N[C@H](C(=O)N[C@@H](CCN)C(=O)N[C@H]2CCNC(=O)[C@H]([C@@H](C)O)NC(=O)[C@H](CCN)NC(=O)[C@H](CCN)NC(=O)[C@H](CC(C)C)NC(=O)[C@@H](CC(C)C)NC(=O)[C@H](CCN)NC2=O)[C@@H](C)O)NC(=O)[C@H](CC(C)C)NC(=O)[C@H](CO)NC(=O)[C@H](Cc2ccc(O)cc2)NC(=O)[C@@H]2CCCN2C(=O)[C@H]2CCCN2C(=O)[C@H]([C@@H](C)O)NC(=O)[C@H](C)NC1=O [Ex. 145] (H-WCLAT[dP]PYSLCG[Dab]T[Dab][Dab][Dab][dL]L[Dab][Dab]T; disulfide 2-11; lactam 16-C) | 0.0625 µg/mL | 0.125 µg/mL | 0.5 µg/mL | 0.03125 µg/mL | 0.5 µg/mL | 0.0625 µg/mL | 0.0625 µg/mL | 3%
